# In PubChem BioAssay AID1259407 (Chemical Carcinogenesis Research Information System (CCRIS), 2018):
# Active and inactive are the calls of the source. The rule behind the calls is not given here.
# Test system: CCRIS mutagenicity, Ames/micronucleus/aberration tests
# Experiment: CCRIS mutagenicity studies
structure (smiles),measurement,setting,value
CCOS(C)(=O)=O,mutagenic call,"Test System: CHINESE HAMSTER OVARY, Strain/Indicator: CHO-K1-BH4 (HGPRT), Metabolic Activation: NONE, Method: SUSPENSION/PLATE",active; positive
same,mutagenic call,"Test System: CHINESE HAMSTER V-79, Strain/Indicator: V-79 (HGPRT)/6-THIOGUANINE, Metabolic Activation: NONE",active; positive
same,mutagenic call,"Test System: CHINESE HAMSTER V-79, Strain/Indicator: V-79 (HPRT)/6-THIOGUANINE, Metabolic Activation: NONE, Method: FLUCTUATION TEST",active; positive
same,mutagenic call,"Test System: CHINESE HAMSTER V-79, Strain/Indicator: V-79-MZ (HPRT)/6-THIOGUANINE, Metabolic Activation: NONE",active; positive
same,mutagenic call,"Test System: CHINESE HAMSTER V-79, Strain/Indicator: V-79-UL (HPRT)/6-THIOGUANINE, Metabolic Activation: NONE",active; positive
same,mutagenic call,"Test System: CHINESE HAMSTER V-79, Strain/Indicator: V-79/6-THIOGUANINE, Metabolic Activation: NONE, Method: FLASK ASSAY",active; positive
same,mutagenic call,"Test System: CHINESE HAMSTER V-79, Strain/Indicator: V-79/6-THIOGUANINE, Metabolic Activation: NONE, Method: LIQUID SUSPENSION",active; positive
same,mutagenic call,"Test System: CHINESE HAMSTER V-79, Strain/Indicator: V-79/6-THIOGUANINE, Metabolic Activation: NONE, Method: STANDARD PLATE",active; positive
same,mutagenic call,"Test System: CHINESE HAMSTER V-79, Strain/Indicator: V-79/6-THIOGUANINE, Metabolic Activation: NONE, Method: SUSPENSION/PLATE",active; positive
same,mutagenic call,"Test System: CHINESE HAMSTER V-79, Strain/Indicator: V-79/8-AZAGUANINE, Metabolic Activation: NONE, Method: STANDARD PLATE",active; positive
same,mutagenic call,"Test System: CHINESE HAMSTER V-79, Strain/Indicator: V-79/8-AZAGUANINE, Metabolic Activation: NONE, Method: SUSPENSION/PLATE",active; positive
same,mutagenic call,"Test System: CHINESE HAMSTER V-79, Strain/Indicator: V-79/OUABAIN, Metabolic Activation: NONE, Method: STANDARD PLATE",active; positive
same,mutagenic call,"Test System: CHINESE HAMSTER V-79, Strain/Indicator: V-79/OUABAIN, Metabolic Activation: NONE, Method: SUSPENSION/PLATE",active; positive
same,mutagenic call,"Test System: CHO/HGPRT, Strain/Indicator: CHO-K1-BH4, Metabolic Activation: MOUSE, IN VIVO, Method: HOST-MEDIATED",active; positive
same,mutagenic call,"Test System: E. COLI, Strain/Indicator: WP2, Metabolic Activation: NONE, Method: STANDARD PLATE",active; positive
same,mutagenic call,"Test System: E. COLI, Strain/Indicator: WP2, Metabolic Activation: RAT, LIVER, S-9, AROCLOR 1254, Method: STANDARD PLATE",active; positive
same,mutagenic call,"Test System: E. COLI, Strain/Indicator: WP2 UVRA, Metabolic Activation: HAMSTER, LIVER, S-9, AROCLOR 1254, Method: STANDARD PLATE",inactive; negative
same,mutagenic call,"Test System: E. COLI, Strain/Indicator: WP2 UVRA, Metabolic Activation: HAMSTER, LIVER, S-9, Method: STANDARD PLATE",inactive; negative
same,mutagenic call,"Test System: E. COLI, Strain/Indicator: WP2 UVRA, Metabolic Activation: MOUSE, LIVER, S-9, AROCLOR 1254, Method: STANDARD PLATE",inactive; negative
same,mutagenic call,"Test System: E. COLI, Strain/Indicator: WP2 UVRA, Metabolic Activation: MOUSE, LIVER, S-9, Method: STANDARD PLATE",inactive; negative
same,mutagenic call,"Test System: E. COLI, Strain/Indicator: WP2 UVRA, Metabolic Activation: RAT, LIVER, S-9, Method: STANDARD PLATE",inactive; negative
same,mutagenic call,"Test System: MOUSE LYMPHOMA, Strain/Indicator: L5178Y (HGPRT)/6-THIOGUANINE, Metabolic Activation: NONE, Method: SUSPENSION/PLATE",active; positive
same,mutagenic call,"Test System: MOUSE LYMPHOMA, Strain/Indicator: L5178Y (TK+/TK-)/TRIFLUOROTHYMIDINE, Metabolic Activation: NONE, Method: SUSPENSION/PLATE",active; positive
same,mutagenic call,"Test System: MOUSE LYMPHOMA, Strain/Indicator: L5178Y (TK+/TK-), Metabolic Activation: NONE, Method: FLUCTUATION TEST",active; positive
same,mutagenic call,"Test System: MOUSE LYMPHOMA, Strain/Indicator: L5178Y (TK+/TK-), Metabolic Activation: NONE, Method: IN SITU",active; positive
same,mutagenic call,"Test System: MOUSE LYMPHOMA, Strain/Indicator: L5178Y (TK+/TK-), Metabolic Activation: NONE, Method: LIQUID SUSPENSION",active; positive
same,mutagenic call,"Test System: MOUSE LYMPHOMA, Strain/Indicator: L5178Y (TK+/TK-), Metabolic Activation: RAT, LIVER, S-9, AROCLOR 1254, Method: SUSPENSION/PLATE",active; positive
same,mutagenic call,"Test System: UDS HUMAN CELLS, Strain/Indicator: THY INCORP (NON-S-PHASE), Metabolic Activation: NONE, Method: LIQUID SCINTILLATION COUNTING",active; positive
same,mutagenic call,"Test System: UDS HUMAN LYMPHOCYTES, Strain/Indicator: THY INCORP (NON-S-PHASE), Metabolic Activation: NONE, Method: LIQUID SCINTILLATION COUNTING",active; positive
same,mutagenic call,"Test System: UDS RODENT PRIMARY CELLS, Strain/Indicator: THY INCORP (NON-S-PHASE), Metabolic Activation: NONE, Method: LIQUID SCINTILLATION COUNTING",active; positive
